Assay results: paper PMC11845477, “Exploring the principles behind antibiotics with limited resistance” (Nature Communications, 2025)
Where a SMILES comes first, the peptide text is derived from it. Bridges are numbered along the chain shown (N, C = ends). [ ]: non-standard residue; d: D form. The star is where a group is joined. X1 = NC[C@@H](CC(=O)*)c1cccc(Cl)c1; X2 = CC[C@H](C)CCCCC(=O)*; Dab = NCC[C@H](N)C(=O)O; Dap = NC[C@H](N)C(=O)O

Columns and labels:
[1] = system: P. aeruginosa ATCC BAA-3107 (SEN) and P. aeruginosa LESB58 (MDR); assay: microbe, parasite or virus in culture; assay type: cell-based, Pseudomonas aeruginosa; conditions: for MIC of ancestor: ancestor strain; for MIC: across three biological replicates
Outline: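 Broth microdilution in cation-adjusted Mueller-Hinton Broth 2 (except SCH79797), 11–16-step serial dilutions, 5 × 10^5 cells/mL, 37 °C with shaking for 18 h, 2 replicates. MIC is the lowest concentration giving complete growth inhibition (OD600 < 0.05); relative MIC = MIC evolved/MIC ancestor.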

[2] = system: E. coli ATCC 25922 (SEN) and E. coli NCTC13846 (MDR); assay: Adaptive laboratory evolution (ALE), relative MIC of evolved lines; assay type: cell-based, Escherichia coli
Outline: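 Ten parallel populations per antibiotic–ancestor pair were evolved in MHB at 37 °C, starting near 50% growth-inhibiting drug. Every 72 h they were passaged into 0.5–2.5× increasing concentrations, keeping the highest-drug well with OD600 > 0.2.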

[3] = Pseudomonas aeruginosa ATCC BAA-3107 (PA-SEN)
[4] = Pseudomonas aeruginosa LESB 58 (PA-MDR)
[5] = EC-MDR (Escherichia coli NCTC 13846), evolved line 2
[6] = EC-MDR (Escherichia coli NCTC 13846), evolved line 10
[7] = EC-SEN (Escherichia coli ATCC 25922), evolved line 4
[8] = EC-SEN (Escherichia coli ATCC 25922), evolved line 6

CC(C)C[C@@H]1NC(=O)[C@@H](Cc2ccccc2)NC(=O)[C@H](CCN)NC(=O)[C@@H](NC(=O)[C@H](CN)NC(=O)[C@@H](NC(=O)C[C@H](CN)c2cccc(Cl)c2)[C@@H](C)O)CCNC(=O)[C@H]([C@@H](C)O)NC(=O)[C@H](CCN)NC(=O)[C@H](CCN)NC1=O [SPR206] (X1-T[Dap][Dab][Dab][dF]L[Dab][Dab]T; lactam 3-C (inferred); N-terminus assumed)
MIC of ancestor ([1]; P. aeruginosa ATCC BAA 3107 (PA-SEN)): 1 µg/mL | MIC of ancestor ([1]; P. aeruginosa ATCC BAA 3107 (PA-SEN), sheet fig 2a): 1 µg/mL | MIC of ancestor ([1]; P. aeruginosa LESB 58 (PA-MDR)): 4 µg/mL | MIC of ancestor ([1]; P. aeruginosa LESB 58 (PA-MDR), sheet fig 2a): 4 µg/mL | MIC [1, 3]: 1 µg/mL | MIC [1, 4]: 4 µg/mL | Relative MIC ([2]; ALE, E. coli ATCC 25922 (EC-SEN), evolved line 1): 512 | Relative MIC ([2]; ALE, E. coli ATCC 25922 (EC-SEN), evolved line 2): 256 | Relative MIC ([2]; ALE, E. coli ATCC 25922 (EC-SEN), evolved line 3): 512 | Relative MIC ([2]; ALE, E. coli ATCC 25922 (EC-SEN), evolved line 4): 256 | Relative MIC ([2]; ALE, E. coli ATCC 25922 (EC-SEN), evolved line 5): 128 | Relative MIC ([2]; ALE, E. coli ATCC 25922 (EC-SEN), evolved line 6): 512 | Relative MIC ([2]; ALE, E. coli ATCC 25922 (EC-SEN), evolved line 7): 256 | Relative MIC ([2]; ALE, E. coli ATCC 25922 (EC-SEN), evolved line 8): 128 | Relative MIC ([2]; ALE, E. coli ATCC 25922 (EC-SEN), evolved line 9): 256 | Relative MIC ([2]; ALE, E. coli ATCC 25922 (EC-SEN), evolved line 10): 16 | Relative MIC ([2]; ALE, E. coli NCTC 13846 (EC-MDR), evolved line 1): 8 | Relative MIC ([2]; ALE, E. coli NCTC 13846 (EC-MDR), evolved line 2): 16 | Relative MIC ([2]; ALE, E. coli NCTC 13846 (EC-MDR), evolved line 3): 16 | Relative MIC ([2]; ALE, E. coli NCTC 13846 (EC-MDR), evolved line 4): 16 | Relative MIC ([2]; ALE, E. coli NCTC 13846 (EC-MDR), evolved line 5): 32 | Relative MIC ([2]; ALE, E. coli NCTC 13846 (EC-MDR), evolved line 6): 8 | Relative MIC ([2]; ALE, E. coli NCTC 13846 (EC-MDR), evolved line 7): 8 | Relative MIC ([2]; ALE, E. coli NCTC 13846 (EC-MDR), evolved line 8): 16 | Relative MIC ([2]; ALE, E. coli NCTC 13846 (EC-MDR), evolved line 9): 16 | Relative MIC ([2]; ALE, E. coli NCTC 13846 (EC-MDR), evolved line 10): 32 | Relative MIC (log10) [2, 5]: 1.204 log10 | Relative MIC (log10) ([2]; EC-MDR (Escherichia coli NCTC 13846), evolved line 4): 1.204 log10 | Relative MIC (log10) ([2]; EC-MDR (Escherichia coli NCTC 13846), evolved line 8): 1.204 log10 | Relative MIC (log10) ([2]; EC-MDR (Escherichia coli NCTC 13846), evolved line 9): 1.204 log10 | Relative MIC (log10) [2, 6]: 1.505 log10 | MIC of evolved line ([2]; EC-MDR (NCTC 13846), evolved line 1): 32 µg/mL | Relative MIC ([2]; EC-MDR (NCTC 13846), evolved line 1, evolved vs ancestor): 8 | MIC of evolved line ([2]; EC-MDR (NCTC 13846), evolved line 2): 64 µg/mL | Relative MIC ([2]; EC-MDR (NCTC 13846), evolved line 2, evolved vs ancestor): 16 | Relative MIC ([2]; EC-MDR (NCTC 13846), evolved line 3, evolved vs ancestor): 16 | MIC of evolved line ([2]; EC-MDR (NCTC 13846), evolved line 4): 64 µg/mL | Relative MIC ([2]; EC-MDR (NCTC 13846), evolved line 4, evolved vs ancestor): 16 | Relative MIC ([2]; EC-MDR (NCTC 13846), evolved line 5, evolved vs ancestor): 32 | Relative MIC ([2]; EC-MDR (NCTC 13846), evolved line 6, evolved vs ancestor): 8 | MIC of evolved line ([2]; EC-MDR (NCTC 13846), evolved line 7): 32 µg/mL | Relative MIC ([2]; EC-MDR (NCTC 13846), evolved line 7, evolved vs ancestor): 8 | Relative MIC ([2]; EC-MDR (NCTC 13846), evolved line 8, evolved vs ancestor): 16 | Relative MIC ([2]; EC-MDR (NCTC 13846), evolved line 9, evolved vs ancestor): 16 | Relative MIC ([2]; EC-MDR (NCTC 13846), evolved line 10, evolved vs ancestor): 32 | MIC of evolved line ([2]; EC-MDR NCTC 13846, evolved line 3): 64 µg/mL | MIC of evolved line ([2]; EC-MDR NCTC 13846, evolved line 5): 128 µg/mL | MIC of evolved line ([2]; EC-MDR NCTC 13846, evolved line 6): 32 µg/mL | MIC of evolved line ([2]; EC-MDR NCTC 13846, evolved line 8): 64 µg/mL | MIC of evolved line ([2]; EC-MDR NCTC 13846, evolved line 9): 64 µg/mL | MIC of evolved line ([2]; EC-MDR NCTC 13846, evolved line 10): 128 µg/mL | MIC of evolved line ([2]; EC-SEN (ATCC 25922), evolved line 1): 128 µg/mL | Relative MIC ([2]; EC-SEN (ATCC 25922), evolved line 1, evolved vs ancestor): 512 | MIC of evolved line ([2]; EC-SEN (ATCC 25922), evolved line 2): 64 µg/mL | Relative MIC ([2]; EC-SEN (ATCC 25922), evolved line 2, evolved vs ancestor): 256 | MIC of evolved line ([2]; EC-SEN (ATCC 25922), evolved line 3): 128 µg/mL | Relative MIC ([2]; EC-SEN (ATCC 25922), evolved line 3, evolved vs ancestor): 512 | MIC of evolved line ([2]; EC-SEN (ATCC 25922), evolved line 4): 64 µg/mL | Relative MIC ([2]; EC-SEN (ATCC 25922), evolved line 4, evolved vs ancestor): 256 | MIC of evolved line ([2]; EC-SEN (ATCC 25922), evolved line 5): 32 µg/mL | Relative MIC ([2]; EC-SEN (ATCC 25922), evolved line 5, evolved vs ancestor): 128 | MIC of evolved line ([2]; EC-SEN (ATCC 25922), evolved line 6): 128 µg/mL | Relative MIC ([2]; EC-SEN (ATCC 25922), evolved line 6, evolved vs ancestor): 512 | MIC of evolved line ([2]; EC-SEN (ATCC 25922), evolved line 7): 64 µg/mL | Relative MIC ([2]; EC-SEN (ATCC 25922), evolved line 7, evolved vs ancestor): 256 | MIC of evolved line ([2]; EC-SEN (ATCC 25922), evolved line 8): 32 µg/mL | Relative MIC ([2]; EC-SEN (ATCC 25922), evolved line 8, evolved vs ancestor): 128 | MIC of evolved line ([2]; EC-SEN (ATCC 25922), evolved line 9): 64 µg/mL | Relative MIC ([2]; EC-SEN (ATCC 25922), evolved line 9, evolved vs ancestor): 256 | MIC of evolved line ([2]; EC-SEN (ATCC 25922), evolved line 10): 4 µg/mL | Relative MIC ([2]; EC-SEN (ATCC 25922), evolved line 10, evolved vs ancestor): 16 | Relative MIC (log10) ([2]; EC-SEN (Escherichia coli ATCC 25922), evolved line 3): 2.709 log10 | Relative MIC (log10) [2, 7]: 2.408 log10 | Relative MIC (log10) [2, 8]: 2.709 log10 | Relative MIC (log10) ([2]; EC-SEN (Escherichia coli ATCC 25922), evolved line 9): 2.408 log10 | Relative MIC (log10) ([2]; EC-SEN, Escherichia coli ATCC 25922, evolved line 1): 2.709 log10 | Relative MIC ([2]; Escherichia coli ATCC 25922 (EC-SEN), evolved line 1): 512 | Relative MIC ([2]; Escherichia coli ATCC 25922 (EC-SEN), evolved line 2): 256 | Relative MIC ([2]; Escherichia coli ATCC 25922 (EC-SEN), evolved line 3): 512 | Relative MIC ([2]; Escherichia coli ATCC 25922 (EC-SEN), evolved line 4): 256 | Relative MIC ([2]; Escherichia coli ATCC 25922 (EC-SEN), evolved line 5): 128 | Relative MIC ([2]; Escherichia coli ATCC 25922 (EC-SEN), evolved line 6): 512 | Relative MIC ([2]; Escherichia coli ATCC 25922 (EC-SEN), evolved line 7): 256 | Relative MIC ([2]; Escherichia coli ATCC 25922 (EC-SEN), evolved line 8): 128 | Relative MIC ([2]; Escherichia coli ATCC 25922 (EC-SEN), evolved line 9): 256 | Relative MIC ([2]; Escherichia coli ATCC 25922 (EC-SEN), evolved line 10): 16 | Relative MIC ([2]; Escherichia coli NCTC 13846 (EC-MDR), evolved line 1): 8 | Relative MIC ([2]; Escherichia coli NCTC 13846 (EC-MDR), evolved line 2): 16 | Relative MIC ([2]; Escherichia coli NCTC 13846 (EC-MDR), evolved line 3): 16 | Relative MIC ([2]; Escherichia coli NCTC 13846 (EC-MDR), evolved line 4): 16 | Relative MIC ([2]; Escherichia coli NCTC 13846 (EC-MDR), evolved line 5): 32 | Relative MIC ([2]; Escherichia coli NCTC 13846 (EC-MDR), evolved line 6): 8 | Relative MIC ([2]; Escherichia coli NCTC 13846 (EC-MDR), evolved line 7): 8 | Relative MIC ([2]; Escherichia coli NCTC 13846 (EC-MDR), evolved line 8): 16 | Relative MIC ([2]; Escherichia coli NCTC 13846 (EC-MDR), evolved line 9): 16 | Relative MIC ([2]; Escherichia coli NCTC 13846 (EC-MDR), evolved line 10): 32

CC[C@H](C)CCCCC(=O)N[C@@H](CCN)C(=O)N[C@H](C(=O)N[C@@H](CCN)C(=O)N[C@H]1CCNC(=O)[C@H]([C@@H](C)O)NC(=O)[C@H](CCN)NC(=O)[C@H](CCN)NC(=O)[C@H](CC(C)C)NC(=O)[C@@H](Cc2ccccc2)NC(=O)[C@H](CCN)NC1=O)[C@@H](C)O [Polymyxin B] (X2-[Dab]T[Dab][Dab][Dab][dF]L[Dab][Dab]T; lactam 4-C (inferred); N-terminus assumed)
MIC [1, 3]: 1 µg/mL | MIC [1, 4]: 2 µg/mL | Relative MIC (log10) [2, 5]: 1.505 log10 | Relative MIC (log10) ([2]; EC-MDR (Escherichia coli NCTC 13846), evolved line 5): 1.204 log10 | Relative MIC (log10) [2, 6]: 1.204 log10 | Relative MIC (log10) ([2]; EC-MDR, Escherichia coli NCTC 13846, evolved line 1): 1.505 log10 | Relative MIC (log10) ([2]; EC-MDR, Escherichia coli NCTC 13846, evolved line 6): 1.204 log10 | Relative MIC (log10) [2, 7]: 2.107 log10 | Relative MIC (log10) [2, 8]: 2.107 log10 | Relative MIC (log10) ([2]; EC-SEN (Escherichia coli ATCC 25922), evolved line 8): 2.107 log10 | Relative MIC (log10) ([2]; EC-SEN (Escherichia coli ATCC 25922), evolved line 10): 2.107 log10 | Relative MIC (log10) ([2]; EC-SEN, Escherichia coli ATCC 25922, evolved line 2): 2.107 log10
